Reference: patent US9895730B2, “Method for extraction and surfactant enhanced subsurface contaminant recovery” (priority 2007, dated 2018)
Like-named read-outs stand apart in the source and are kept apart here.

Columns and labels:
[1] = cited from earlier work
[2] = cited from earlier work; remark: listed apart in the source
[3] = Chlorinated DNAPL dissolution experiments with Citrus Burst-3; format: physicochemical; details: water, thermodynamic from solid, in presence of chlorinated DNAPL, without cosolvent-surfactant, 25° C., read-out: Observed Solubility in Control Sample
Excerpt: In order to test the treatment of chlorinated compounds, a chlorinated solvent DNAPL was obtained from a site consisting of chlorinated solvents and chlorinated semi-volatile compounds. Composition of the chlorinated solvent DNAPL is presented based on determinations using USEPA Methods 8260 and 8270.
Carbon tetrachloride and tetrachloroethylene comprised more than 87 percent of the DNAPL. Being a saturated compound, carbon tetrachloride is generally a pervasive and difficult to degrade compound once introduced to the subsurface.

Row | Structure (SMILES) | log Kow ([1]; Table 2) | Pure Compound Aqueous Solubility [2] | log Kow ([1]; Table 5) | further results
1 | CCc1ccccc1 [Ethylbenzene] | 3.1 | – | – | –
2 | Cc1ccc(C)c(C)c1 [1,2,4-Trimethybenzene] | 3.7 | – | – | –
3 | ClC(Cl)(Cl)Cl [Carbon Tetrachloride (CTC), Carbon Tetrachloride] | – | 0.129 mg/mL | 2.83 | solubility at 48 h [3]: 0.1 mg/mL
4 | Clc1c(Cl)c(Cl)c2c(Cl)c(Cl)c(Cl)c(Cl)c2c1Cl [Octachloronaphthalene (OCN), Octachloronaphthalene] | – | insoluble | – | –
5 | ClC(Cl)=C(Cl)C(Cl)=C(Cl)Cl [Hexachlorobutadiene (HCBD), Hexachlorobutadiene] | – | – | 4.90 | –
6 | Cc1ccc2ccccc2c1 [2-Methylnaphthalene] | 3.9 | – | – | –
